Measurements taken from patent US12601000B2, “Method for the hydroxylation of steroids” (ANNIKKI GMBH, priority 2020, dated 2026).
Values after ≈ are worked out from the molar mass of the structure shown. Like-named read-outs stand apart in the source and are kept apart here. Each block holds one compound with its values, some of them ahead of it.

What was measured:
[1] = Solubility limits of LCA and UDCA in organic solvents; assay type: physicochemical; conditions: organic solvent, organic solvent or mixture, thermodynamic from solid, read-out: solubility limit
Protocol: The organic solvent was added in increments of 100 μL, and the mixture was treated by shaking in a vortex shaker and optionally in an ultrasonic bath. It was visually assessed as to whether a clear solution was present.

[2] = test system: Saccharothrix longispora (DSM-43749); assay: Test of bacterial strains for 7-hydroxylation of deoxycholic acid; assay type: cell-based; conditions: deoxycholic acid 0.5 mM, cultured up to 72 h, HPLC and GC/MS
Excerpt: (§1) The following bacterial strains were obtained from the German Strain Collection of Microorganisms and Cell Cultures (DSMZ [Deutsche Stammsammlung für Mikroorganismen und Zellkulturen]): Saccharothrix longispora (DSM-43749), Catellatospora citrae (DSM-44097), Streptomyces hygroscopicus subsp. hygroscopicus (DSM-40578) and Asanoa ferruginea (DSM-44099). The strains were cultivated under standard conditions as recommended by DSMZ. […] After a centrifugation step, supernatants of the cultures were extracted with ethyl acetate and analyzed by HPLC and GC/MS.

[3] = test system: Asanoa ferruginea (DSM-44099); assay: as above; assay type: cell-based; conditions: deoxycholic acid 0.5 mM, cultured up to 72 h, HPLC and GC/MS
Excerpt: as §1

[4] = test system: Streptomyces hygroscopicus subsp. hygroscopicus (DSM-40578); assay: as above; assay type: cell-based; conditions: deoxycholic acid 0.5 mM, cultured up to 72 h, HPLC and GC/MS
Excerpt: as §1

[5] = test system: Catellatospora citrae (DSM-44097); assay: as above; assay type: cell-based; conditions: deoxycholic acid 0.5 mM, cultured up to 72 h, HPLC and GC/MS
Excerpt: as §1

solubility ([1]; 2-butanol): 53 mg/mL (≈ 135 mM) | solubility ([1]; 2-butanone): 10 mg/mL (≈ 25.5 mM) | solubility ([1]; CH2Cl2): 1.1 mg/mL (≈ 2.8 mM) | solubility ([1]; CHCl3/phenol): 21.3 mg/mL (≈ 54.3 mM) | solubility ([1]; CHCl3): 2.9 mg/mL (≈ 7.39 mM) | solubility ([1]; DMA): > 500 mg/mL | solubility ([1]; DMF): > 500 mg/mL | solubility ([1]; DMSO): > 500 mg/mL | solubility ([1]; Et2O): 2 mg/mL (≈ 5.09 mM) | solubility ([1]; Me—THF): 63.4 mg/mL (≈ 161 mM) | solubility ([1]; THF): 259 mg/mL (≈ 660 mM) | solubility ([1]; acetone): 8.8 mg/mL (≈ 22.4 mM) | solubility ([1]; cyclohexane): < 0.7 mg/mL | solubility ([1]; dioxane): 92.6 mg/mL (≈ 236 mM) | solubility ([1]; ethanol): 54.5 mg/mL (≈ 139 mM) | solubility ([1]; ethyl acetate (EtOAc)): 2.9 mg/mL (≈ 7.39 mM) | solubility ([1]; ethylene glycol): 16.6 mg/mL (≈ 42.3 mM) | solubility ([1]; hexane/EtOAc + 0.01% trifluoroacetic acid (TFA)): < 0.8 mg/mL | solubility ([1]; hexane/IPA 7:3 + 0.02% TFA): 12 mg/mL | solubility ([1]; hexane/IPA 8:2 + 0.01% TFA): 4 mg/mL | solubility ([1]; i Pr2O): < 0.5 mg/mL | solubility ([1]; isopropanol (IPA)): 47.5 mg/mL (≈ 121 mM) | solubility ([1]; methanol): > 100 mg/mL | solubility ([1]; methyl isobutyl alcohol (MIBA)): 35.7 mg/mL (≈ 90.9 mM) | solubility ([1]; methyl isobutyl ketone (MIBK)): 4.4 mg/mL (≈ 11.2 mM) | solubility ([1]; toluene): < 1 mg/mL
SMILES: C[C@H](CCC(=O)O)[C@H]1CC[C@H]2[C@@H]3[C@@H](O)C[C@@H]4C[C@H](O)CC[C@]4(C)[C@H]3CC[C@]12C [UDCA, ursodeoxycholic acid]

SMILES: C[C@H](CCC(=O)O)[C@H]1CC[C@H]2[C@@H]3CC[C@@H]4C[C@H](O)CC[C@]4(C)[C@H]3C[C@H](O)[C@]12C [deoxycholic acid, 3α,12α-dihydroxy-5β-cholanic acid]
7-hydroxylated product of deoxycholic acid in culture supernatant [2]: no indication of 7-hydroxylated products | 7-hydroxylated product of deoxycholic acid in culture supernatant [3]: no indication of 7-hydroxylated products | 7-hydroxylated product of deoxycholic acid in culture supernatant [4]: a peak was noted the retention time of which corresponds to that of ursocholic acid | 7-hydroxylated product of deoxycholic acid in culture supernatant [5]: no indication of 7-hydroxylated products
